Test results as given in patent US20220401481A1, “DOSING REGIMENS FOR THE MOBILIZATION OF HEMATOPOIETIC STEM AND PROGENITOR CELLS” (Magenta Therapeutics, Inc., priority 2019, published 2022).
Values joined by “and” are separate entries in the source; they are usually repeats but may differ in a detail not shown here. Equal entries are not always repeated. Where two headings read alike, the source gives them in different places. Each block holds one molecule with its values, some of them ahead of it.

What was measured:
[1] = test system: T cells, B cells and NK cells; conditions: cited from earlier work
CD34+CD90+CD45RA− cells = experiment: Phase 1 clinical trial: mobilization of CD34+CD90+CD45RA− cells into peripheral blood (flow cytometry)
CD34+ cells [2] = experiment: Phase 1 clinical trial: mobilization of CD34+ cells into peripheral blood (multicolor flow cytometry); conditions: for % ≥40/μL: plerixafor
CD34+ cells [3] = conditions: historical plerixafor alone data, Devine et al., Blood 2008 (n=25); cited from earlier work
[4] = test system: hematopoietic stem and progenitor cell mobilization; conditions: cited from earlier work
white blood cells (WBCs) = experiment: Phase 1 clinical trial: mobilization of white blood cells (automated hematology analyzer); conditions: monotherapy
Protocol: (§1) The dose of MGTA-145 was one of 0.0075 mg/kg, 0.015 mg/kg, 0.03 mg/kg, 0.075 mg/kg, 0.15 mg/kg, or 0.3 mg/kg. […] The dose of MGTA-145 was one of 0.015 mg/kg, 0.03 mg/kg, 0.075 mg/kg, or 0.15 mg/kg. […] The dose of MGTA-145 was one of 0.03 mg/kg or 0.075 mg/kg.
(§2) Mobilization of white blood cells (WBCs), neutrophils, lymphocytes, basophils, and eosinophils was quantified by automated hematology analyzer.

MMP-9 = experiment: Phase 1 clinical trial: plasma MMP-9 and TIMP-1 by sandwich immunoassay; type: in vivo, human; conditions: monotherapy, all six doses
Protocol: FIGS. 6A and 6B show the plasma levels of MMP-9 and molar ratio of MMP-9:TIMP-1, respectively, over the course of 24 hours following MGTA-145 monotherapy. MMP-9 is an enzyme involved in the breakdown of extracellular matrix and indicative of neutrophil migration whereas TIMP-1 blocks MMP-9 mediated migration. Therefore, an increase in MMP-9 or an increase in MMP-9:TIMP-1 ratio is indicative of increased neutrophil mobilization. […] The plasma levels of MMP-9 then decreased towards initial concentrations over the course of 24 hours.

[5] = test system: relative engraftment (CRU); experiment: Primary and secondary transplantation of mobilized mouse cells at limit dilution (CRU); type: in vivo, mice; conditions: compared to the other cohorts
From the text: Mice (CD45.1) were mobilized according to the scheme shown in FIG. 24 and mobilized cells transplanted into CD45.2 mice at limit dilution.

[6] = test system: neutrophil activation markers (L-selectin, CD11b, CD18, CD66); experiment: Phase 1 clinical trial: neutrophil activation markers by flow cytometry; type: in vivo, human; conditions: monotherapy
From the text: G-CSF, the traditional therapy of choice for mobilization of neutrophils, enhances neutrophil activation, as measured by CD11b and CD18, but this has been identified to be problematic, for example, in patients with sickle cell disease where activated neutrophils adhere to the endothelium, thereby increasing the risk of severe and life-threatening complications such as vaso-occlusive crises. […] In contrast, the administration of MGTA-145 monotherapy (across all six doses) induces less than a 2-fold change relative to baseline for the neutrophil activation markers of CD11b and CD18.

CXCR2 = biological target: T1, CXCR2 (Homo sapiens, UniProt P25025); experiment: Phase 1 clinical trial: CXCR2 expression on peripheral blood neutrophils; type: in vivo
T1 construct: endogenous in cells; host or cells: peripheral blood neutrophils of trial subjects (in vivo dosing, ex vivo measurement)
T1 sequence (P25025 1-360): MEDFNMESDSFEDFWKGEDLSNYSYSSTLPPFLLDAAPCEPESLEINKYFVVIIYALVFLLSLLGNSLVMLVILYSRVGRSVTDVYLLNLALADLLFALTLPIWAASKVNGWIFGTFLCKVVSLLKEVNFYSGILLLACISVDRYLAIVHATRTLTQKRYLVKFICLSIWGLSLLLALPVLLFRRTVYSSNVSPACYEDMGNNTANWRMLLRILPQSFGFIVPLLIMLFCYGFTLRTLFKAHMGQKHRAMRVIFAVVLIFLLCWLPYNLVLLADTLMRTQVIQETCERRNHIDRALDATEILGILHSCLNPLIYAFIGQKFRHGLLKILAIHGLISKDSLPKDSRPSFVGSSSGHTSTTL
Protocol: Lines from bottom to top at 6 hrs post-administration represent 0.3 mg/kg, 0.15 mg/kg, 0.075 mg/kg, 0.03 mg/kg, 0.015 mg/kg, […], respectively.

neutrophils = experiment: Phase 1 clinical trial: mobilization of neutrophils (automated hematology analyzer); conditions: monotherapy
Protocol: as §1, §2

[7] = G-CSF; Pulsiper et al. (2009) Blood; cited from earlier work
[8] = test system: neutrophil activation markers (L-selectin, CD11b, CD18, CD66); conditions: 5 days of G-CSF treatment, reported by Falanga et al., Blood 1999; cited from earlier work
[9] = Chen et al., 2019, plerixafor N = 50+, median yield of 2 LP
[10] = Devine et al, 2008, median yield of 1 LP, plerixafor N = 24, G-CSF N = 8
[11] = Part C, first day, combination (0.03 or […]) 8 patients, plerixafor alone
[12] = Part C, placebo + plerixafor on Day 2 (n=2)
[13] = Part A monotherapy, the other doses
[14] = higher doses (0.075, 0.15, 0.3 mg/kg), 2 hours post administration
[15] = lower doses (0.0075, 0.015, 0.03 mg/kg), between 1 and 2 hours post administration
[16] = Part A, MGTA-145 on Day 1, 0.03 mg/kg (n=4)
[17] = Part A, MGTA-145 on Day 1, 0.3 mg/kg (n=4)
[18] = 78 healthy donors mobilized with G-CSF (Chaidos et al, Blood. 2012)
[19] = Chen et al., 2019, G-CSF N = 112+, 1 LP

Molecule: c1cc(CN2CCCNCCNCCCNCC2)ccc1CN1CCCNCCNCCCNCC1 [Plerixafor, 1,1′-[1,4-phenylenebis(methylene)]-bis-1,4,8,11-tetra-azacyclotetradecane]
CD3+ in graft, Median (range) [1, 9]: 6.0 (2.7-13.0) ×10^8/kg
CD4+ in graft, Median (range) [1, 9]: 3.6 (2.0-9.4) ×10^8/kg
CD8+ in graft, Median (range) [1, 9]: 2.2 (0.5-5.0) ×10^8/kg
CD19+ in graft, Median (range) [1, 9]: 1.5 (0.2-7.4) ×10^8/kg
CD34+ in graft, Median (range) [1, 9]: 4.7 (0.9-9.6) ×10^6/kg
CD56+ in graft, Median (range) [1, 9]: 0.4 (0.0-1.1) ×10^8/kg
CD3+ in graft, Median (range) [1, 10]: 4.6 (1.5-7.8) ×10^8/kg
CD4+ in graft, Median (range) [1, 10]: 3.2 (1-5.7) ×10^8/kg
CD8+ in graft, Median (range) [1, 10]: 1.3 (0.4-3.4) ×10^8/kg
CD34+ in graft, Median (range) [1, 10]: 2.9 (1.2-6.3) ×10^6/kg
CD56+ in graft, Median (range) [1, 10]: 0.3 (0.1-1.0) ×10^8/kg
CD19+ in graft, Median (range) ([1]; Devine et al, 2008, median yield of 1 LP, plerixafor N = 24): 1.0 (0.2-2.4) ×10^8/kg
CD34+CD90+CD45RA− cells, median peak (CD34+CD90+CD45RA− cells; plerixafor alone): 8 cells/μL
CD34+ AUC2-8h Median (range) (CD34+ cells [2]; 2-8 hours post plerixafor dose, plerixafor alone): 102 (61-341)
% ≥40/μL (CD34+ cells [2]; Part B): 21% (3/16)
Peak CD34+ (#/μL) Median (range) (CD34+ cells [2]; Part B, plerixafor (placebo + plerixafor) on Day 1): 26 (13-78) #/μL
Number of patients with peak CD34+ count of at least 20 cells per microliter (CD34+ cells [2]; [11]): none
Number of patients with peak CD34+ count of at least 40 cells per microliter (CD34+ cells [2]; [11]): none
Peak CD34+ (#/μL) Median (range) (CD34+ cells [2]; [12]): 17 (12-22) #/μL
Percent ≥20/μL (CD34+ cells [2]; [12]): 50 (1/2) %
Peak CD34+ (#/μL) Median (range) (CD34+ cells [2]; Part C, plerixafor (placebo + plerixafor) on Day 1 (n=2)): 18 (16-20) #/μL
% ≥40/μL (CD34+ cells [2]; Part C, first day (n=2)): 0% (0/2)
% ≥40/μL (CD34+ cells [2]; Pooled B + C): 14% (2/14)
Peak CD34+ (#/μL) Median (range) (CD34+ cells [2]; Pooled B + C, plerixafor (placebo + plerixafor) on Day 1): 20 (13-78) #/μL and 23 (13-78) #/μL
Peak CD34+/μL (FC vs. baseline) Median (range) (CD34+ cells [2]; plerixafor alone): 15 (8-62) fold
Tmax of peak CD34+ level Median (range) (CD34+ cells [2]; plerixafor alone): 8 (3-12) h
Patients with peak CD34+ ≥20 cells/μL (CD34+ cells [2]; plerixafor alone (n=14)): 50%
Patients with peak CD34+ ≥40 cells/μL (CD34+ cells [2]; plerixafor alone (n=14)): 14%
Patients with peak CD34+ ≥20 cells/μL (CD34+ cells [3]): 28%
Patients with peak CD34+ ≥40 cells/μL (CD34+ cells [3]): 4%

Molecule: Gro-β T N65D: Gro-β T with aspartic acid in place of asparagine at position 65, SEQ ID NO: 4 [reference compound]
Potency (hematopoietic stem and progenitor cell mobilization) relative to Gro-β T ([4]; described in U.S. Pat. No. 6,447,766): substantially greater than that of Gro-β T

CXCR2 expression recovery prior to the second dose (CXCR2; 0.07 mg/kg, staggered dosing, two consecutive days): ~80 % of baseline
CXCR2 on peripheral blood neutrophils (CXCR2; monotherapy, followed by recovery over 24 hours): rapid downregulation
Molecule: MGTA-145: CXCR2 agonist; truncated Gro-β with deletion of the first four N-terminal amino acids (SEQ ID NO: 2)
Time of peak CD34+CD90+CD45RA− mobilization post administration (CD34+CD90+CD45RA− cells; Part A monotherapy): 30 min
Fold increase of CD34+CD90+CD45RA− cells (CD34+CD90+CD45RA− cells; Part A monotherapy, 0.03 mg/kg): ~8.3 fold
Peak concentration of CD34+CD90+CD45RA− cells (CD34+CD90+CD45RA− cells; Part A monotherapy, 0.03 mg/kg): ~3 cells/μL
Fold increase of CD34+CD90+CD45RA− cells (CD34+CD90+CD45RA− cells; [13]): 2-3.5 fold
Peak concentration of CD34+CD90+CD45RA− cells (CD34+CD90+CD45RA− cells; [13]): 1-1.6 cells/μL
Initial plateau of WBC mobilization (white blood cells (WBCs); [14]): 6-10 ×10^3 cells/μL
Peak mobilization of WBCs (white blood cells (WBCs); [15]): 15-17 ×10^3 cells/μL
Potency to induce hematopoietic stem and progenitor cell mobilization relative to Gro-β ([4]; described in U.S. Pat. No. 6,080,398): superior to that of Gro-β by multiple orders of magnitude
Molar ratio of MMP-9:TIMP-1 (MMP-9): rapid increase 30 minutes post-administration
Plasma levels of MMP-9 (MMP-9): increased sharply within 30 minutes post-administration
Engraftment rates, secondary transplantation [5]: vastly improved engraftment rates
Fold increase of CD34+ cells (CD34+ cells [2]; Part A monotherapy, 0.03 mg/kg): 7 fold
Peak concentration of CD34+ cells (CD34+ cells [2]; Part A monotherapy, 0.03 mg/kg): ~10 cells/μL
Time of peak CD34+ mobilization post administration (CD34+ cells [2]; Part A monotherapy, across the six doses (0.0075-0.3 mg/kg)): about 30 minutes
Fold increase of CD34+ cells (CD34+ cells [2]; [13]): 2-3 fold
Peak concentration of CD34+ cells (CD34+ cells [2]; Part A monotherapy, the other doses (0.0075, 0.015, 0.075, 0.15, 0.3 mg/kg)): ~5 cells/μL
Peak CD34+ (#/μL) Median (range) (CD34+ cells [2]; [16]): 12 (2-19) #/μL
Percent ≥20/μL (CD34+ cells [2]; [16]): 0 (0/4) %
Peak CD34+ (#/μL) Median (range) (CD34+ cells [2]; [17]): 3 (3-13) #/μL
Percent ≥20/μL (CD34+ cells [2]; [17]): 0 (0/4) %
Fold change relative to baseline, CD66 ([6]; all doses except the highest (0.3 mg/kg)): < 2 fold
Fold change relative to baseline, CD11b and CD18 ([6]; all six doses): < 2 fold
Fold change relative to baseline, L-selectin ([6]; all six doses): < 2 fold
Initial plateau of neutrophil mobilization (neutrophils; [14]): 5-8 ×10^3 cells/μL
Peak mobilization of neutrophils (neutrophils; [15]): 13-15 ×10^3 cells/μL

B1: G-CSF: Filgrastim (G-CSF), most common clinical hematopoietic stem cell mobilization protocol, five days (protein, UniProt P09919 31-207, looked up)
Granulocyte …: TPLGPASSLPQSFLLKCLEQVRKIQGDGAALQEKLVSECATYKLCHPEELVLLGHSLGIPWAPLSSCPSQALQLAGCLSQLHSGLFLYQGLLQALEGISPELGPTLDTLQLDVADFATTIWQQMEELGMAPALQPTQGAMPAFASAFQRRAGGVLVASHLQSFLEVSYRVLRHLAQP
modifications: filgrastim
TNC/kg donor weight, Median (range) ([1]; 40 healthy donors mobilized with G-CSF (Singhal et al, BMT. 2000)): 7.2 (3.2-14.0) ×10^8 cells
Frequency of CD3+ T cells in graft, Median (range) [1, 18]: 45.3 (21.8-75.4) % of CD45+
Frequency of CD4+ T cells in graft, Median (range) [1, 18]: 29.8 (12.6-56.5) % of CD45+
Frequency of CD8+ T cells in graft, Median (range) [1, 18]: 11.8 (4.1-29.2) % of CD45+
Frequency of CD19+ B cells in graft, Median (range) [1, 18]: 10.5 (0.9-34.8) % of CD45+
Frequency of CD56+ NK cells in graft, Median (range) [1, 18]: 3.2 (0.5-18.4) % of CD45+
Frequency of Tregs in graft, Median (range) [1, 18]: 3.5 (0.9-8.2) % of CD4+ T cells
Frequency of iNKT cells in graft, Median (range) [1, 18]: 0.04 (0.00-1.07) % of CD3+
CD3+ in graft, Median [1, 19]: 2.5e+08 kg⁻¹
CD4+ in graft, Median [1, 19]: 1.5e+08 kg⁻¹
CD8+ in graft, Median [1, 19]: 7e+07 kg⁻¹
CD19+ in graft, Median [1, 19]: 5e+07 kg⁻¹
CD34+ in graft, Median [1, 19]: 4.2e+06 kg⁻¹
CD56+ in graft, Median [1, 19]: 1e+07 kg⁻¹
CD3+ in graft, Median (range) [1, 10]: 1.3 (1.2-6.8) ×10^8/kg
CD4+ in graft, Median (range) [1, 10]: 1.1 (0.7-3.2) ×10^8/kg
CD8+ in graft, Median (range) [1, 10]: 0.4 (0.3-3.4) ×10^8/kg
CD34+ in graft, Median (range) [1, 10]: 4.2 (2.5-18.7) ×10^6/kg
CD56+ in graft, Median (range) [1, 10]: 0.2 (0.1-0.5) ×10^8/kg
Tolerability [7]: Majority with bone pain,
Fold increase in neutrophil activation markers [8]: ~2.7 fold
